Here are results for 18 compounds from patent US7109193B2, “Tricyclic diazepines tocolytic oxytocin receptor antagonists” (Wyeth, priority 2001, dated 2006).

A word on the inhibition: it is how much of the control response was suppressed.

Each structure is given as a SMILES string.

The experiment concerns the target T1, human oxytocin receptor (Homo sapiens, UniProt P30559).
T1 construct: host or cells: CHO cells (pcDNA3.1 vector)
T1 sequence (P30559 1-389): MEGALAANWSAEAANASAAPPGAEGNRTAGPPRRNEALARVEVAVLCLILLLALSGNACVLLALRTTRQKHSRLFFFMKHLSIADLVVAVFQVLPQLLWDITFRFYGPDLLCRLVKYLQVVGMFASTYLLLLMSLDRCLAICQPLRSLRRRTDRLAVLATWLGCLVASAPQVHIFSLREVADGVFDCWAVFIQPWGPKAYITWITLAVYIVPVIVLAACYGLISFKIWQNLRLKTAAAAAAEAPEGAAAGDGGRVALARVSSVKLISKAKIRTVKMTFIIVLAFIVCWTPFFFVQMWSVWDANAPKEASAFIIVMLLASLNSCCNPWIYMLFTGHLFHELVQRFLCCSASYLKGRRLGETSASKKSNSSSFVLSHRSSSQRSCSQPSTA
Put plainly: Oxytocin binding in Chinese Hamster Ovary cell membranes expressing human oxytocin receptors. As to conditions: 100 nM, CHO cell membranes, [3H]oxytocin, values without parentheses, read-out: OT % inhibition @ 100% nM.
Take `COc1cc(C(=O)N2Cc3ccc(C(=O)N(C)C4CCN(C)CC4)n3Cc3ccccc32)ccc1-c1cccc2ccccc12` [Example 182, 10-[3-Methoxy-4-(1-naphthyl)benzoyl]-N-methyl-N-(1-methyl-4-piperidinyl)-10,11-dihydro-5H-pyrrolo[2,1-c][1,4]benzodiazepine-3-carboxamide]: the inhibition at 0.1 µM came out at 70%.
Take `Cc1cc(C(=O)N2Cc3ccc(C(=O)N(C)C4CCN(C)CC4)n3Cc3ccccc32)ccc1-c1ccccc1C(F)(F)F` [Example 184, N-Methyl-N-(1-methyl-4-piperidinyl)-10-{[2-methyl-2′-(trifluoromethyl)[1,1′-biphenyl]-4-yl]carbonyl}-10,11-dihydro-5H-pyrrolo[2,1-c][1,4]benzodiazepine-3-carboxamide]: the inhibition at 0.1 µM came out at 83%.
As for `COc1cc(C(=O)N2Cc3ccc(C(=O)N(C)C4CCN(C)C4)n3Cc3ccccc32)ccc1-c1cccc2ccccc12` (stereo not drawn) [Example 192, 10-[3-Methoxy-4-(1-naphthyl)benzoyl]-N-methyl-N-(1-methyl-3-pyrrolidinyl)-10,11-dihydro-5H-pyrrolo[2,1-c][1,4]benzodiazepine-3-carboxamide], the figure is 91%; as for `C=CCN1CCN(C(=O)c2ccc3n2Cc2ccccc2N(C(=O)c2ccc(-c4ccccc4C)c(OC)c2)C3)CC1` [Example 225, (4-Allyl-1-piperazinyl){10-[(2-methoxy-2′-methyl[1,1′-biphenyl]-4-yl)carbonyl]-10,11-dihydro-5H-pyrrolo[2,1-c][1,4]benzodiazepin-3-yl}methanone], 87%; as for `COc1cccc(-c2ccc(C(=O)N3Cc4ccc(C(=O)NCCN5CCCCC5)n4Cc4ccccc43)cc2OC)c1` [Example 159, 10-[(2,3′-Dimethoxy[1,1′-biphenyl]-4-yl)carbonyl]-N-[2-(1-piperidinyl)ethyl]-10,11-dihydro-5H-pyrrolo[2,1-c][1,4]benzodiazepine-3-carboxamide], 50%.
As for `Cc1ccccc1-c1ccc(C(=O)N2Cc3ccc(C(=O)NCCC4CCCN4C)n3Cc3ccccc32)cc1` (stereo not drawn) [Example 166, 10-[(2′-Methyl[1,1′-biphenyl]-4-yl)carbonyl]-N-[2-(1-methyl-2-pyrrolidinyl)ethyl]-10,11-dihydro-5H-pyrrolo[2,1-c][1,4]benzodiazepine-3-carboxamide], the figure is 27%; as for `COc1cc(-c2ccccc2C)c(Cl)cc1C(=O)N1Cc2ccc(C(=O)NCCC3CCCN3C)n2Cc2ccccc21` (stereo not drawn) [Example 168, 10-[(6-Chloro-3-methoxy-2′-methyl[1,1′-biphenyl]-4-yl)carbonyl]-N-[2-(1-methyl-2-pyrrolidinyl)ethyl]-10,11-dihydro-5H-pyrrolo[2,1-c][1,4]benzodiazepine-3-carboxamide], 52%.
`O=C(NCCN1CCCCC1)c1ccc2n1Cc1ccccc1N(C(=O)c1ccc(-c3cccc4ccccc34)cc1Cl)C2` [Example 160, 10-[2-Chloro-4-(1-naphthyl)benzoyl]-N-[2-(1-piperidinyl)ethyl]-10,11-dihydro-5H-pyrrolo[2,1-c][1,4]benzodiazepine-3-carboxamide]: the inhibition at 0.1 µM was 20%.
On to `C=CCN1CCN(C(=O)c2ccc3n2Cc2ccccc2N(C(=O)c2ccc(-c4cccc(OC)c4)c(OC)c2)C3)CC1` [Example 228, (4-Allyl-1-piperazinyl){10-[(2,3′-dimethoxy[1,1′-biphenyl]-4-yl)carbonyl]-10,11-dihydro-5H -pyrrolo[2,1-c][1,4]benzodiazepin-3-yl}methanone], for which the inhibition at 0.1 µM amounted to 77%.
The same measure for `COc1ccccc1-c1ccc(C(=O)N2Cc3ccc(C(=O)NCCC4CCCN4C)n3Cc3ccccc32)cc1` (stereo not drawn) [Example 165, 10-[(2′-Methoxy[1,1′-biphenyl]-4-yl)carbonyl]-N-[2-(1-methyl-2-pyrrolidinyl)ethyl]-10,11-dihydro-5H-pyrrolo[2,1-c][1,4]benzodiazepine-3-carboxamide]: 64%; for `COc1ccccc1-c1ccc(C(=O)N2Cc3ccc(C(=O)N4CCN(C(C)C)CC4)n3Cc3ccccc32)cc1C` [Example 232, (4-Isopropyl-1-piperazinyl){10-[(2′-methoxy-2-methyl[1,1′-biphenyl]-4-yl)carbonyl]-10,11-dihydro-5H-pyrrolo[2,1-c][1,4]benzodiazepin-3-yl}methanone]: 81%; for `Cc1ccccc1-c1ccc(C(=O)N2Cc3ccc(C(=O)N4CCN(CCN5CCOCC5)CC4)n3Cc3ccccc32)cc1` [Example 209, {10-[(2′-Methyl[1,1′-biphenyl]-4-yl)carbonyl]-10,11-dihydro-5H-pyrrolo[2,1-c][1,4]benzodiazepin-3-yl}{4-[2-(4-morpholinyl)ethyl]-1-piperazinyl}methanone]: 81%.
As for `COc1cc(C(=O)N2Cc3ccc(C(=O)NCCN4CCCCC4)n3Cc3ccccc32)ccc1-c1cccc2ccccc12` [Example 157, 10-[3-Methoxy-4-(1-naphthyl)benzoyl]-N-[2-(1-piperidinyl)ethyl]-10,11-dihydro-5H-pyrrolo[2,1-c][1,4]benzodiazepine-3-carboxamide], the figure is 38%.
The same measure for `COc1ccccc1-c1ccc(C(=O)N2Cc3ccc(C(=O)N4CCN(CCN(C)C)CC4)n3Cc3ccccc32)cc1OC` [Example 204, {10-[(2,2′-Dimethoxy[1,1′-biphenyl]-4-yl)carbonyl]-10,11-dihydro-5H-pyrrolo[2,1-c][1,4]benzodiazepin-3-yl}{4-[2-(dimethylamino)ethyl]-1-piperazinyl}methanone]: 72%.
Turning to `C=CCN1CCN(C(=O)c2ccc3n2Cc2ccccc2N(C(=O)c2ccc(-c4cccc5ccccc45)cc2Cl)C3)CC1` [Example 229, (4-Allyl-1-piperazinyl){10-[2-chloro-4-(1-naphthyl)benzoyl]-10,11-dihydro-5H-pyrrolo[2,1-c][1,4]benzodiazepin-3-yl}methanone], the inhibition at 0.1 µM amounted to 19%.
As for `COc1ccccc1-c1ccc(C(=O)N2Cc3ccc(C(=O)NCCC4CCCN4C)n3Cc3ccccc32)cc1OC` (stereo not drawn) [Example 171, 10-[(2,2′-Dimethoxy[1,1′-biphenyl]-4-yl)carbonyl]-N-[2-(1-methyl-2-pyrrolidinyl)ethyl]-10,11-dihydro-5H-pyrrolo[2,1-c][1,4]benzodiazepine-3-carboxamide], the figure is 40%; as for `COc1cccc(-c2ccc(C(=O)N3Cc4ccc(C(=O)N5CCN(CCN6CCOCC6)CC5)n4Cc4ccccc43)cc2OC)c1` [Example 211, {10-[(2,3′-Dimethoxy[1,1′-biphenyl]-4-yl)carbonyl]-10,11-dihydro-5H-pyrrolo[2,1-c][1,4]benzodiazepin-3-yl}{4-[2-(4-morpholinyl)ethyl]-1-piperazinyl}methanone], 87%; as for `Cc1ccccc1-c1ccc(C(=O)N2Cc3ccc(C(=O)N4CCN(CCN(C)C)CC4)n3Cc3ccccc32)cc1` [Example 200, {4-[2-(Dimethylamino)ethyl]-1-piperazinyl}{10-[(2′-methyl[1,1′-biphenyl]-4-yl)carbonyl]-10,11-dihydro-5H-pyrrolo[2,1-c][1,4]benzodiazepin-3-yl}methanone], 87%.
